{"source": "paper PMC9704079", "about": "“Enhancement of the anticancer effect of atorvastatin-loaded nanoemulsions by improving oral absorption via multivalent intestinal transporter-targeting lipids” (Drug Delivery, 2022)", "key": {"[1]": {"system": "4T1 (murine stage IV breast cancer) cells", "type": "cell-based", "conditions": "mouse, 24 h", "description": "(§1) After incubation for 1 h, the absorbance at 450 nm was measured and the percentage of viable cells was calculated by comparison with the absorbance of untreated cells (100% viability)."}, "[2]": {"system": "MCF-7 (human breast adenocarcinoma) cells", "type": "cell-based", "conditions": "24 h", "description": "as §1"}, "4T1 cells [3]": {"system": "4T1 cells", "test": "In vitro 4T1 cell adhesion to ECM components", "type": "cell-based, murine", "conditions": "100 µg/mL ATV, 1.5 h; fibronectin, collagen I, collagen IV, laminin I, fibrinogen", "description": "After incubation for 1.5 h at 37 °C, the cells were washed with PBS (pH 7.4) and stained by incubation for 10 min with the dye included in the kit. Then, each well was gently washed five times with 500 µL of sterilized water; 200 µL of extraction solution were added to each well, and the cells were incubated for 10 min in an orbital shaker. Finally, change in color was measured with a plate reader at 560 nm; inhibition of adhesion in the drug-treated cells was evaluated relative to inhibition in the untreated cells (control)."}, "4T1 cells [4]": {"system": "4T1 cells", "test": "In vitro 4T1 cell invasion assay", "type": "cell-based, murine", "conditions": "100 µg/mL ATV, 24 h", "description": "(§2) The in vitro inhibition of 4T1 cell invasion and migration by ATV-NEs was assessed by Cultrex® 24-well basement membrane extract cell invasion assays (Trevigen, Inc., Gaithersburg, MD, USA). Briefly, the membrane insert in each well was uniformly coated with 100 µL of 0.5× basement membrane extract and incubated for 24 h at 37 °C. Separately, uncoated wells were used for cell migration assays. Next, each coated well was washed using 1× buffer. For invasion assays, the cells in Roswell Park Memorial Institute medium with 0.5% FBS were seeded into each apical chamber at a density of 1 × 10^6 cells/well. For cell migration assays, the same number of cells was seeded in the uncoated apical compartment. Subsequently, 500 µL of Roswell Park Memorial Institute medium containing 10% FBS were loaded into the basal compartment to serve as a chemoattractant; the cells were then cultured at 37 °C. After incubation for 24 h, both apical and basal compartments were washed with 1× buffer and the basal chamber was filled with 500 µL of cell dissociation solution (calcein-AM); the cells were incubated for 1 h at 37 °C. Finally, the dissolved calcein-AM concentration was measured with a fluorescence reader at an excitation wavelength of 485 nm and emission wavelength of 520 nm."}, "4T1 cells [5]": {"system": "4T1 cells", "test": "In vitro 4T1 cell migration assay", "type": "cell-based, murine", "conditions": "Mus musculus, 4T1, 24 h; read-out: Inhibition of 4T1 cell migration compared with untreated controls", "description": "as §2"}, "4T1 cell tumor": {"system": "4T1 cell tumor", "test": "In vivo tumor growth inhibition in 4T1 cell tumor-bearing mice", "set-up": "species or system BALB/c mice", "description": "To evaluate the in vivo antitumor efficacy of oral ATV-NEs, 1 × 10^6 4T1 cells dispersed in 100 μL of PBS (pH 7.4) were subcutaneously inoculated into the left flanks of BALB/c mice. […] To assess tumor growth suppression, the tumor size and body weight of the mice in all groups were measured every 3 days after treatment. The tumor volume in each mouse was calculated as (width)^2 × length × 0.52. After 21 days of treatment, mice were sacrificed and tumor masses were measured."}}}
{"smiles": "CC(C)c1c(C(=O)Nc2ccccc2)c(-c2ccccc2)c(-c2ccc(F)cc2)n1CC[C@@H](O)C[C@@H](O)CC(=O)O", "note": "[ATV in 0.5% DMSO, Atorvastatin]", "values": [{"measurement": "Concentration at which cytotoxic effects were exhibited", "setting": "[1]", "value": "> 100", "unit": "µg/mL ATV"}, {"measurement": "Concentration at which cytotoxic effects were exhibited", "setting": "[2]", "value": "> 100", "unit": "µg/mL ATV"}, {"measurement": "4T1 cell adhesion to ECM components (in words)", "setting": "4T1 cells [3]", "value": "significantly decreased adhesion"}, {"measurement": "Decrease in 4T1 cell invasion compared with untreated controls", "setting": "4T1 cells [4]", "value": 31.9, "unit": "%"}, {"measurement": "inhibition at 100 µg/mL", "setting": "4T1 cells [5]", "value": 20.3, "unit": "%"}]}
{"smiles": "CC(C)c1c(C(=O)Nc2ccccc2)c(-c2ccccc2)c(-c2ccc(F)cc2)n1CC[C@@H](O)C[C@@H](O)CC(=O)O", "note": "[ATV in 10% DMF, Atorvastatin]", "values": [{"measurement": "Tumor growth compared to untreated controls (in words)", "setting": "4T1 cell tumor; daily oral, 40 mg/kg ATV in 10% DMF, 21 days", "value": "did not inhibit tumor growth"}]}
{"smiles": "CC(C)c1c(C(=O)Nc2ccccc2)c(-c2ccccc2)c(-c2ccc(F)cc2)n1CC[C@@H](O)C[C@@H](O)CC(=O)O", "note": "[ATV-IP, Atorvastatin]", "values": [{"measurement": "Tumor growth inhibition compared to controls", "setting": "4T1 cell tumor; once-daily IP, 5 mg/kg ATV in 10% DMF, 21 days", "value": 30.4, "unit": "%"}, {"measurement": "Tumor growth inhibition compared to controls", "setting": "4T1 cell tumor; once-daily IP, 10 mg/kg ATV in 10% DMF, 21 days", "value": 52.5, "unit": "%"}, {"measurement": "Isolated tumor mass reduction compared to controls", "setting": "4T1 cell tumor; once-daily IP, 10 mg/kg ATV in 10% DMF, day 21", "value": 73.8, "unit": "%"}]}
